Measured values published in patent publication US9428456B2, “1-[m-carboxamido(hetero)aryl-methyl]-heterocyclyl-carboxamide derivatives” (Actelion Pharmaceuticals Ltd., priority 2012, dated 2016).

Biological target: CXCR7 (Homo sapiens (Human), UniProt P25106)
Test: PathHunter CHO-K1 CXCR7 b-arrestin assay (agonistic activity)
Format: cell-based
Details: PathHunter CHO-K1 CXCR7 b-arrestin cell line
Method: The CXCl12 receptor and CXCR7 agonistic activities of the compounds of formula (I) are determined in accordance with the following experimental method.
The assay is using the PathHunter™ CHO-K1 CXCR7 b-arrestin cell line from DiscoverX. The system is based on the Enzyme Fragment Complementation Technology. Two complementing fragments of the b-galactosidase enzyme are expressed within stably transfected cells. The larger portion of b-gal, termed EA for Enzyme Acceptor, is fused to the C-terminus of b-arrestin 2. The smaller fragment, termed ProLink™ tag, is fused to CXCR7 at the C-terminus. Upon activation, b-arrestin is recruited which forces the interaction of ProLink and EA, allowing complementation of the two fragments of b-gal and the formation of a functional enzyme which is capable of hydrolysing the substrate and generating a chemiluminescent signal.
CHO-K1 CXCR7 b-arrestin cells are detached from culture dishes with a cell dissociation buffer (Invitrogen, #13151-014) and collected in growing medium (F12 HAMS 90% (v/v)/FCS 10% (v/v), Penicilin/streptomycin 1% (v/v)). 5000 cells per well (in 20 μl) are seeded in a 384 well plate (white-walled, clear bottom; BD Falcon #353274). The plate is incubated at 37° C./5% CO2 for 24 hours. Medium is then replaced by 20 μl OPTIMEM (Invitrogen #31985) for 3 to 4 hours. Test compounds are dissolved at 10 mM in DMSO and serially diluted in DMSO to 200× of the final concentration for dose response curves. Compounds are then diluted 1:33.3 in HBSS1×. 5 μl/well of HBSS1×/20 mM HEPES/0.2% BSA are added to the assay plate followed by addition of 5 μl/well of diluted compounds. CXCL12 (Peprotech #300-28A) may be used as a reference agonist. The plate is incubated for 90 minutes at 37° C. 12 μl of detection reagent (Path Hunter Detection Kit, DiscoveRx, #93-0001) is transferred to the assay plate and to the plate is incubated for 1 hour at room temperature. Luminescent signal is read in a microplate reader (FLUOstar Optima, bmg). The calculated EC50 values may fluctuate depending on the daily cellular assay performance. Fluctuations of this kind are known to those skilled in the art. Average EC50 values from several measurements are given as geometric mean values.

Chain of CXCR7 (P25106 whole entry): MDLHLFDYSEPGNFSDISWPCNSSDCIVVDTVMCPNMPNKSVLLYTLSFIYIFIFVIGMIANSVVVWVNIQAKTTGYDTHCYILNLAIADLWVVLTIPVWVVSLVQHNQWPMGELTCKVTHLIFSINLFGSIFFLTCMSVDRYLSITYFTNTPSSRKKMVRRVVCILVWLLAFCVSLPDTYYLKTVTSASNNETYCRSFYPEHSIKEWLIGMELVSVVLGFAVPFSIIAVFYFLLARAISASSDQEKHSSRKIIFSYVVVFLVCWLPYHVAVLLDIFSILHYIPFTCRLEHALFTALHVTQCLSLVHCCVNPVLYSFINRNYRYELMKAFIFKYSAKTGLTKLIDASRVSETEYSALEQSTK
Chain of CXCR7 (P32121 whole entry partner): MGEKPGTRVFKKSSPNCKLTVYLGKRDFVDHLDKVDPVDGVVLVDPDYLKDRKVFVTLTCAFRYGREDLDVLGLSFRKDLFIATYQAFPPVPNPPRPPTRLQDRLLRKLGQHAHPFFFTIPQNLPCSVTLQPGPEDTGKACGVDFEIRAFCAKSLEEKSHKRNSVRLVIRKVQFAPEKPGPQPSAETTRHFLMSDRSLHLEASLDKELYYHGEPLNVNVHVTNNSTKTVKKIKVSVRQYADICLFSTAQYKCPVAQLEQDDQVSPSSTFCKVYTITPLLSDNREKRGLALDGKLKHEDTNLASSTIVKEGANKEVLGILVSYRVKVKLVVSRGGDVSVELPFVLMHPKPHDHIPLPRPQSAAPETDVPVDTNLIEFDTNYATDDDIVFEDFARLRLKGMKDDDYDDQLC

SMILES	EC50 [µM]
Cc1cc(C(=O)Nc2cccc(CN3CCC(C(=O)NC4CCCCC4)CC3)c2)cc(C2CCCC2)n1 [Example 1.054]	0.041
Cc1cc(C(=O)Nc2cccc(CN3CCC(C(=O)NC4CCCCC4)CC3)c2)ccn1 [Example 1.055]	0.01
O=C(Nc1cccc(CN2CCC(C(=O)NC3CCCCC3)CC2)c1)c1cncc(F)c1 [Example 1.056]	0.007
O=C(Nc1cccc(CN2CCC(C(=O)NC3CCCCC3)CC2)c1)c1ccc(F)cn1 [Example 1.057]	0.0008
O=C(Nc1cccc(CN2CCC(C(=O)NC3CCCCC3)CC2)c1)c1cncc(C(F)(F)F)c1 [Example 1.058]	0.005
O=C(Nc1cccc(CN2CCC(C(=O)NC3CCCCC3)CC2)c1)c1cccnc1C(F)(F)F [Example 1.059]	0.393
Cc1cncc(C(=O)Nc2cccc(CN3CCC(C(=O)NC4CCCCC4)CC3)c2)c1 [Example 1.060]	0.004
Cc1cccnc1C(=O)Nc1cccc(CN2CCC(C(=O)NC3CCCCC3)CC2)c1 [Example 1.061]	0.001
COc1cc(C(=O)Nc2cccc(CN3CCC(C(=O)NC4CCCCC4)CC3)c2)nc(OC)n1 [Example 1.062]	0.057
Cc1ccncc1C(=O)Nc1cccc(CN2CCC(C(=O)NC3CCCCC3)CC2)c1 [Example 1.063]	0.237
Cc1ccc(C(=O)Nc2cccc(CN3CCC(C(=O)NC4CCCCC4)CC3)c2)cn1 [Example 1.064]	0.019
Cc1ncccc1C(=O)Nc1cccc(CN2CCC(C(=O)NC3CCCCC3)CC2)c1 [Example 1.065]	0.059
O=C(Nc1cccc(CN2CCC(C(=O)NC3CCCCC3)CC2)c1)c1cccnc1Cl [Example 1.066]	0.044
O=C(Nc1cccc(CN2CCC(C(=O)NC3CCCCC3)CC2)c1)c1ccc(Cl)nc1 [Example 1.067]	0.002
O=C(Nc1cccc(CN2CCC(C(=O)NC3CCCCC3)CC2)c1)c1ccc(C(F)(F)F)nc1 [Example 1.068]	0.007
COc1ncccc1C(=O)Nc1cccc(CN2CCC(C(=O)NC3CCCCC3)CC2)c1 [Example 1.069]	0.01
Cc1ccc(C(=O)Nc2cccc(CN3CCC(C(=O)NC4CCCCC4)CC3)c2)c(Cl)n1 [Example 1.070]	0.04
CCN(CC)c1ccc(C(=O)Nc2cccc(CN3CCC(C(=O)NC4CCCCC4)CC3)c2)cn1 [Example 1.071]	0.182
CN1CCN(c2ccc(C(=O)Nc3cccc(CN4CCC(C(=O)NC5CCCCC5)CC4)c3)cn2)CC1 [Example 1.072]	0.471

SMILES	EC50 [µM]
O=C(Nc1cccc(CN2CCC(C(=O)NC3CCCCC3)CC2)c1)c1cccnc1N1CCOCC1 [Example 1.073]	0.371
O=C(Nc1cccc(CN2CCC(C(=O)NC3CCCCC3)CC2)c1)c1ccncc1Cl [Example 1.074]	0.06
COc1cc(C(=O)Nc2cccc(CN3CCC(C(=O)NC4CCCCC4)CC3)c2)cc(Cl)n1 [Example 1.075]	0.009
O=C(Nc1cccc(CN2CCC(C(=O)NC3CCCCC3)CC2)c1)c1cnc2[nH]ccc2c1 [Example 1.076]	0.026
O=C(Nc1cccc(CN2CCC(C(=O)NC3CCCCC3)CC2)c1)c1cc(Cl)ccn1 [Example 1.077]	0.003
O=C(Nc1cccc(CN2CCC(C(=O)NC3CCCCC3)CC2)c1)c1cccc(Cl)n1 [Example 1.078]	0.001
O=C(Nc1cccc(CN2CCC(C(=O)NC3CCCCC3)CC2)c1)c1cccc[n+]1[O-] [Example 1.080]	0.014
Cc1cccc(C(=O)Nc2cccc(CN3CCC(C(=O)NC4CCCCC4)CC3)c2)n1 [Example 1.081]	0.0009
Cc1ccnc(C(=O)Nc2cccc(CN3CCC(C(=O)NC4CCCCC4)CC3)c2)c1 [Example 1.082]	0.004
Cc1cc(C)nc(C(=O)Nc2cccc(CN3CCC(C(=O)NC4CCCCC4)CC3)c2)c1 [Example 1.083]	0.011
O=C(Nc1cccc(CN2CCC(C(=O)NC3CCCCC3)CC2)c1)c1ccc(N2CCCC2)cn1 [Example 1.084]	0.039
O=C(Nc1cccc(CN2CCC(C(=O)NC3CCCCC3)CC2)c1)c1ncccc1Br [Example 1.085]	0.001
Cc1ncncc1C(=O)Nc1cccc(CN2CCC(C(=O)NC3CCCCC3)CC2)c1 [Example 1.086]	0.527
O=C(Nc1cccc(CN2CCC(C(=O)NC3CCCCC3)CC2)c1)c1ncccn1 [Example 1.087]	0.036
Cc1cc(C(=O)Nc2cccc(CN3CCC(C(=O)NC4CCCCC4)CC3)c2)nc(N(C)C)n1 [Example 1.088]	0.024
O=C(Nc1cccc(CN2CCC(C(=O)NC3CCCCC3)CC2)c1)c1cc(F)c(Cl)nc1Cl [Example 1.089]	0.015
O=C(Nc1cccc(CN2CCC(C(=O)NC3CCCCC3)CC2)c1)c1cnc(Cl)c(Cl)c1 [Example 1.090]	0.006
O=C(Nc1cccc(CN2CCC(C(=O)NC3CCCCC3)CC2)c1)c1ccc(Cl)nc1Cl [Example 1.091]	0.012
COc1ccc(C(=O)Nc2cccc(CN3CCC(C(=O)NC4CCCCC4)CC3)c2)cn1 [Example 1.092]	0.003

SMILES	EC50 [µM]
O=C(Nc1cccc(CN2CCC(C(=O)NC3CCCCC3)CC2)c1)c1cnc2cc[nH]c2c1 [Example 1.093]	0.149
O=C(Nc1cccc(CN2CCC(C(=O)NC3CCCCC3)CC2)c1)c1ccc(Cl)cn1 [Example 1.094]	0.001
O=C(Nc1cccc(CN2CCC(C(=O)NC3CCCCC3)CC2)c1)c1ccccc1OC(F)(F)F [Example 1.095]	0.005
CN(C)c1ccc(C(=O)Nc2cccc(CN3CCC(C(=O)NC4CCCCC4)CC3)c2)cc1 [Example 1.096]	0.04
CCc1ccc(C(=O)Nc2cccc(CN3CCC(C(=O)NC4CCCCC4)CC3)c2)cc1 [Example 1.097]	0.005
CC(C)c1ccc(C(=O)Nc2cccc(CN3CCC(C(=O)NC4CCCCC4)CC3)c2)cc1 [Example 1.098]	0.012
Cc1ccccc1C(=O)Nc1cccc(CN2CCC(C(=O)NC3CCCCC3)CC2)c1 [Example 1.099]	0.019
Cc1cccc(C(=O)Nc2cccc(CN3CCC(C(=O)NC4CCCCC4)CC3)c2)c1 [Example 1.100]	0.003
Cc1ccc(C(=O)Nc2cccc(CN3CCC(C(=O)NC4CCCCC4)CC3)c2)cc1 [Example 1.101]	0.004
O=C(Nc1cccc(CN2CCC(C(=O)NC3CCCCC3)CC2)c1)c1ccccc1F [Example 1.102]	0.004
O=C(Nc1cccc(CN2CCC(C(=O)NC3CCCCC3)CC2)c1)c1cccc(C(F)(F)F)c1 [Example 1.104]	0.005
O=C(Nc1cccc(CN2CCC(C(=O)NC3CCCCC3)CC2)c1)c1ccc(C(F)(F)F)cc1 [Example 1.105]	0.005
N#Cc1cccc(C(=O)Nc2cccc(CN3CCC(C(=O)NC4CCCCC4)CC3)c2)c1 [Example 1.106]	0.012
N#Cc1ccc(C(=O)Nc2cccc(CN3CCC(C(=O)NC4CCCCC4)CC3)c2)cc1 [Example 1.107]	0.008
Cc1cccc(C)c1C(=O)Nc1cccc(CN2CCC(C(=O)NC3CCCCC3)CC2)c1 [Example 1.108]	0.633
Cc1cccc(C(=O)Nc2cccc(CN3CCC(C(=O)NC4CCCCC4)CC3)c2)c1C [Example 1.109]	0.04
Cc1ccc(C)c(C(=O)Nc2cccc(CN3CCC(C(=O)NC4CCCCC4)CC3)c2)c1 [Example 1.110]	0.008
Cc1ccc(C(=O)Nc2cccc(CN3CCC(C(=O)NC4CCCCC4)CC3)c2)c(C)c1 [Example 1.111]	0.004
